Assay results from ChEMBL document CHEMBL3244338, “Antineoplastic agents. Structure-activity relationship study of bis(substituted aminoalkylamino)anthraquinones” (J Med Chem, 1978).
The source made the active and inactive calls. The calls are words filed in the database; no cut-off is given here.

What was measured:
[1] = tested on: P388; experiment: Antitumor activity against mouse P388 cells allografted in BDF1 mouse assessed as mouse survival at 50 mg/kg administered 24 hrs post challenge relative to control; assay type: functional, organism-based; design: dose 50 mg/kg
[2] = tested on: P388; experiment: Antitumor activity against mouse P388 cells allografted in BDF1 mouse assessed as mouse survival at 25 mg/kg administered 24 hrs post challenge relative to control; assay type: functional, organism-based; design: dose 25 mg/kg
[3] = tested on: P388; experiment: Antitumor activity against mouse P388 cells allografted in BDF1 mouse assessed as increase in survival time at 100 mg/kg administered 24 hrs post challenge relative to control; assay type: functional
[4] = tested on: P388; experiment: Antitumor activity against mouse P388 cells allografted in BDF1 mouse assessed as increase in survival time at 50 mg/kg administered 24 hrs post challenge relative to control; assay type: functional
[5] = tested on: P388; experiment: Antitumor activity against mouse P388 cells allografted in BDF1 mouse assessed as increase in survival time at 25 mg/kg administered 24 hrs post challenge relative to control; assay type: functional
[6] = tested on: Mus musculus; experiment: Toxicity in mouse P388 cells allografted BDF1 mouse assessed as body weight difference at 100 mg/kg administered 24 hrs post challenge relative to control; assay type: organism-based; design: dose 100 mg/kg; settings: in vivo
[7] = tested on: Mus musculus; experiment: Toxicity in mouse P388 cells allografted BDF1 mouse assessed as body weight difference at 50 mg/kg administered 24 hrs post challenge relative to control; assay type: organism-based; design: dose 50 mg/kg; settings: in vivo
[8] = tested on: Mus musculus; experiment: Toxicity in mouse P388 cells allografted BDF1 mouse assessed as body weight difference at 25 mg/kg administered 24 hrs post challenge relative to control; assay type: organism-based; design: dose 25 mg/kg; settings: in vivo
[9] = tested on: P388; experiment: Antitumor activity against mouse P388 cells allografted in BDF1 mouse assessed as mouse survival at 12.5 mg/kg administered 24 hrs post challenge relative to control; assay type: functional, organism-based; design: dose 12.5 mg/kg
[10] = tested on: P388; experiment: Antitumor activity against mouse P388 cells allografted in BDF1 mouse assessed as mouse survival at 6.25 mg/kg administered 24 hrs post challenge relative to control; assay type: functional, organism-based; design: dose 6.25 mg/kg
[11] = tested on: P388; experiment: Antitumor activity against mouse P388 cells allografted in BDF1 mouse assessed as increase in survival time at 12.5 mg/kg administered 24 hrs post challenge relative to control; assay type: functional
[12] = tested on: P388; experiment: Antitumor activity against mouse P388 cells allografted in BDF1 mouse assessed as increase in survival time at 6.25 mg/kg administered 24 hrs post challenge relative to control; assay type: functional
[13] = tested on: P388; experiment: Antitumor activity against mouse P388 cells allografted in BDF1 mouse assessed as increase in survival time at 3.13 mg/kg administered 24 hrs post challenge relative to control; assay type: functional
[14] = tested on: P388; experiment: Antitumor activity against mouse P388 cells allografted in BDF1 mouse assessed as increase in survival time at 1.56 mg/kg administered 24 hrs post challenge relative to control; assay type: functional
[15] = tested on: P388; experiment: Antitumor activity against mouse P388 cells allografted in BDF1 mouse assessed as increase in survival time at 0.78 mg/kg administered 24 hrs post challenge relative to control; assay type: functional
[16] = tested on: P388; experiment: Antitumor activity against mouse P388 cells allografted in BDF1 mouse assessed as mouse survival at 3.13 mg/kg administered 24 hrs post challenge relative to control; assay type: functional, organism-based; design: dose 3.13 mg/kg
[17] = tested on: P388; experiment: Antitumor activity against mouse P388 cells allografted in BDF1 mouse assessed as mouse survival at 1.56 mg/kg administered 24 hrs post challenge relative to control; assay type: functional, organism-based; design: dose 1.56 mg/kg
[18] = tested on: P388; experiment: Antitumor activity against mouse P388 cells allografted in BDF1 mouse assessed as mouse survival at 0.78 mg/kg administered 24 hrs post challenge relative to control; assay type: functional, organism-based; design: dose 0.78 mg/kg
[19] = tested on: Mus musculus; experiment: Toxicity in mouse P388 cells allografted BDF1 mouse assessed as body weight difference at 12.5 mg/kg administered 24 hrs post challenge relative to control; assay type: organism-based; design: dose 12.5 mg/kg; settings: in vivo
[20] = tested on: Mus musculus; experiment: Toxicity in mouse P388 cells allografted BDF1 mouse assessed as body weight difference at 6.25 mg/kg administered 24 hrs post challenge relative to control; assay type: organism-based; design: dose 6.25 mg/kg; settings: in vivo
[21] = tested on: Mus musculus; experiment: Toxicity in mouse P388 cells allografted BDF1 mouse assessed as body weight difference at 3.13 mg/kg administered 24 hrs post challenge relative to control; assay type: organism-based; design: dose 3.13 mg/kg; settings: in vivo
[22] = tested on: Mus musculus; experiment: Toxicity in mouse P388 cells allografted BDF1 mouse assessed as body weight difference at 1.56 mg/kg administered 24 hrs post challenge relative to control; assay type: organism-based; design: dose 1.56 mg/kg; settings: in vivo
[23] = tested on: Mus musculus; experiment: Toxicity in mouse P388 cells allografted BDF1 mouse assessed as body weight difference at 0.78 mg/kg administered 24 hrs post challenge relative to control; assay type: organism-based; design: dose 0.78 mg/kg; settings: in vivo
[24] = tested on: B16; experiment: Antitumor activity against mouse B16 cells allografted in BDF1 mouse assessed as increase in survival time at 16 mg/kg administered 24 hrs post challenge relative to control; assay type: functional
[25] = tested on: B16; experiment: Antitumor activity against mouse B16 cells allografted in BDF1 mouse assessed as increase in survival time at 8 mg/kg administered 24 hrs post challenge relative to control; assay type: functional
[26] = tested on: B16; experiment: Antitumor activity against mouse B16 cells allografted in BDF1 mouse assessed as increase in survival time at 4 mg/kg administered 24 hrs post challenge relative to control; assay type: functional
[27] = tested on: P388; experiment: Antitumor activity against mouse P388 cells allografted in BDF1 mouse assessed as increase in survival time at 200 mg/kg administered 24 hrs post challenge relative to control; assay type: functional
[28] = tested on: P388; experiment: Antitumor activity against mouse P388 cells allografted in BDF1 mouse assessed as mouse survival at 100 mg/kg administered 24 hrs post challenge relative to control; assay type: functional, organism-based; design: dose 100 mg/kg
[29] = tested on: P388; experiment: Antitumor activity against mouse P388 cells allografted in BDF1 mouse assessed as increase in survival time at 400 mg/kg administered 24 hrs post challenge relative to control; assay type: functional
[30] = tested on: P388; experiment: Antitumor activity against mouse P388 cells allografted in BDF1 mouse assessed as mouse survival at 400 mg/kg administered 24 hrs post challenge relative to control; assay type: functional, organism-based; design: dose 400 mg/kg
[31] = tested on: P388; experiment: Antitumor activity against mouse P388 cells allografted in BDF1 mouse assessed as mouse survival at 200 mg/kg administered 24 hrs post challenge relative to control; assay type: functional, organism-based; design: dose 200 mg/kg
[32] = tested on: Mus musculus; experiment: Toxicity in mouse P388 cells allografted BDF1 mouse assessed as body weight difference at 400 mg/kg administered 24 hrs post challenge relative to control; assay type: organism-based; design: dose 400 mg/kg; settings: in vivo
[33] = tested on: Mus musculus; experiment: Toxicity in mouse P388 cells allografted BDF1 mouse assessed as body weight difference at 200 mg/kg administered 24 hrs post challenge relative to control; assay type: organism-based; design: dose 200 mg/kg; settings: in vivo

Structure (SMILES)	Activity [1]	Activity [2]	T/C [3]	T/C [4]	T/C [5]	Activity [6]	Activity [7]	Activity [8]	Activity [9]	Activity [10]	T/C [11]	T/C [12]	T/C [13]	Activity [16]	Activity [19]	Activity [20]	Activity [21]	Activity [28]	other results
O=C1c2ccccc2C(=O)c2c(NCCNCCNCCO)ccc(NCCNCCNCCO)c21	Active	Active	120%	112%	110%	-2.6 g	-1.3 g	-1.6 g											
NCCNc1ccc(NCCN)c2c1C(=O)c1ccccc1C2=O		Active			215%			-2.6 g	Active	Active	174%	159%	107%	Active	-1.1 g	-1.1 g	-0.9 g		T/C [14]: 137%; T/C [15]: 150%; Activity [17]: Active; Activity [18]: Active; Activity [22]: -1.6 g; Activity [23]: -1.3 g; T/C [24]: 281%; T/C [25]: 280%; T/C [26]: 280%
COc1ccc(CCNc2ccc(NCCc3ccc(OC)c(OC)c3)c3c2C(=O)c2ccccc2C3=O)cc1OC			86%			-1.7 g												Active	T/C [27]: 101%; T/C [29]: 91%; Activity [30]: Active; Activity [31]: Active; Activity [32]: -2.9 g; Activity [33]: -3.2 g
O=C1c2ccccc2C(=O)c2c(NCCN3CCNCC3)ccc(NCCN3CCNCC3)c21		Active		134%	137%		-2.7 g	-1 g	Active	Active	117%	125%			-1.1 g	-0.4 g			
CCNCCNc1ccc(NCCNCC)c2c1C(=O)c1ccccc1C2=O					132%			-4.8 g		Active	168%	149%	142%	Active	-2.8 g	-2.2 g	-2.3 g		
CCCNCCNc1ccc(NCCNCCC)c2c1C(=O)c1ccccc1C2=O	Active	Active	124%	125%	118%	-2.6 g	-1.7 g	-0.8 g										Active	
